≈ marks a conversion by molar mass, not a printed value. Like-named read-outs stand apart in the source and are kept apart here. Positions of bridges follow the written chain, without caps; N, C: chain ends. Non-standard residues stand in square brackets, D forms with d. Residues, ends and D or L forms follow the SMILES beside them. No end group written: not given here. S5 = C=CCCC[C@](C)(N)C(=O)O
What was measured:
E. coli 1841-06 [1] = format: cell-based
Description: (§1) The minimal inhibitory concentration (MIC) values were determined as follows. Bacteria were first cultured overnight in 2 mL of Lysogeny Broth (LB, VWR Chemicals) at 37 °C with shaking. Second, 20 µL of overnight culture was transferred into 2 mL of MHB medium and further cultured at 37 °C with shaking until the culture reached OD600 of 0.3. Third, the culture was diluted 1:100 in a fresh MHB medium and aliquots of 50 µL were mixed with 50 µL of the previously prepared dilutions of the tested compound in MHB on a transparent flat-bottom 96-well plate (Nest). The plate was then sealed with transparent foil (Titer-Tops) and incubated for 20 h, at 37 °C with shaking. Following incubation, OD at 600 nm was measured using the Tecan Sunrise plate reader. Growth inhibition was determined by comparing the given sample with untreated culture (Growth Control—GC) with MHB alone (Sterility Control—SC) as an additional reference. The experiment was performed in at least two biological replicates of two technical replicates each. Statistical significance was determined by a Two-way ANOVA test using GraphPad Prism 9.

E. coli O157:H7 ST2-8624 [2] = format: cell-based; conditions: MHB, 20 h, 37 °C, OD600; at least two biological replicates of two technical replicates; tested up to 32 µM
Description: as §1

[3] = tested on: Ps. aeruginosa ATCC 27853; format: cell-based
Description: as §1

S. aureus ATCC 29213 [4] = format: cell-based
Description: as §1

[5] = tested on: S. aureus ATCC BAA1720 MRSA; format: cell-based; conditions: MHB, 20 h, 37 °C, OD600; methicillin-resistant strain; tested up to 32 µM
Description: as §1

E. coli K12 [6] = experiment: Antibacterial activity determination, MIC; format: cell-based; conditions: MHB, 20 h, 37 °C, OD600; reference non-pathogenic strain; tested up to 32 µM
Description: as §1

E. coli 1841-06 [7] = format: cell-based; remark: listed apart in the source
Description: (§2) The minimal bactericidal concentration (MBC) values were determined, by diluting wells from the MIC experiment plate in fresh MHB medium. Dilutions of 10, 100, and 1000 times were prepared for the MIC well and up to two higher than MIC concentrations of the tested compound. Dilutions were made on a transparent flat-bottom 96-well plate (Nest) that was next sealed and incubated for 24 h, at 37 °C with shaking. Growth in a given sample well was compared with GC and SC controls.

E. coli K12 [8] = format: cell-based
Description: as §2

E. coli O157:H7 ST2-8624 [9] = format: cell-based; conditions: wells of MIC plate diluted 10, 100, 1000 times in MHB, 24 h, 37 °C
Description: as §2

[10] = tested on: Ps. aeruginosa ATCC 27853; format: cell-based; remark: listed apart in the source
Description: as §2

S. aureus ATCC 29213 [11] = format: cell-based; remark: listed apart in the source
Description: as §2

[12] = tested on: S. aureus ATCC BAA1720 MRSA; format: cell-based
Description: as §2

[13] = tested on: various Gram-positive and Gram-negative strains; experiment: MIC over the panel of strains (summary statements); format: cell-based
Description: as §1

α-chymotrypsin = tested on: T1, α-chymotrypsin; experiment: in vitro; format: in vitro ADME, bovine; conditions: isolated enzyme chymotrypsin, pH 8
T1 construct: α-chymotrypsin from bovine pancreas; from tissue; host or cells: bovine pancreas
Description: (§3) The proteolytic stability of peptides was analyzed against α-chymotrypsin from bovine pancreas (3.4.21.1, ≥ 40 units/mg protein). Peptide solutions (340 µL) in ammonium bicarbonate buffer (0.1 M NH4HCO3, pH 8.0) were incubated with the appropriate amount of chymotrypsin at 37 °C with rapid shaking (600 rpm). Chymotrypsin and peptides were mixed in the 1:1333 ratio[47],[71]. Digestion mixture (60 µL) was taken at 4, 8, 12, 16, and 20 min and treated with 3 µL of 50% acetonitrile containing 1% TFA to stop the reaction and immediately store in ice. Peptide degradation was analyzed with RP-HPLC using the analytical method from 15 to 75% of acetonitrile in 30 min. Before the injection, the sample was diluted by adding 57 µL of ammonium bicarbonate buffer. 100 µL of the solution taken in each period was injected. The stabilities were quantified as the percentage of the peptide peak of area degradation. The total area of each peak was determined for experiments without chymotrypsin. Each experiment was performed twice on different days.

[14] = biological target: T2, α-chymotrypsin from bovine pancreas (Bos taurus, UniProt P00766); experiment: in vitro; format: in vitro ADME; conditions: pH 8
T2 construct: α-chymotrypsin from bovine pancreas; from tissue; host or cells: bovine pancreas
Description: as §3

[15] = tested on: Gram-positive and Gram-negative strains; conditions: both Gram-positive and Gram-negative strains; cited from earlier work
Description: Furthermore, a single-point mutation of a peptide sequence can change its solely cell-penetrating ability into antimicrobial activity, or vice versa. It was shown that the incorporation of hydrophobic or cationic residues changed the character of a CPP into a more antibacterial one.

[16] = MHB, 20 h, 37 °C, OD600, tested up to 32 µM
[17] = wells of MIC plate diluted 10, 100, 1000 times in MHB, 24 h, 37 °C

Compound | MIC (E. coli 1841-06 [1]; 1841-06, 20 h) [µM] | MIC (E. coli O157:H7 ST2-8624 [2]) [µM] | MIC ([3]; ATCC 27853, 20 h) [µM] | MIC (S. aureus ATCC 29213 [4]; ATCC 29213, 20 h) [µM] | MIC [5] [µM] | MIC (E. coli K12 [6]) [µM] | MBC (E. coli 1841-06 [7]; 1841-06, 24 h) [µM] | MBC (E. coli K12 [8]; K12, 24 h) [µM] | MBC (E. coli O157:H7 ST2-8624 [9]) [µM] | MBC ([10]; ATCC 27853, 24 h) [µM] | MBC (S. aureus ATCC 29213 [11]; ATCC 29213, 24 h) [µM] | MBC ([12]; ATCC BAA1720, 24 h) [µM] | other results
KFFKFFKFFK-NH2 [(KFF)3K] | > 32 | 32 | 32 | > 32 | > 32 | 32 | > 32 | 32 | ≥ 32 | ≥ 32 | > 32 | > 32 | MIC ([13]; all Gram-positive and Gram-negative strains tested): > 32 µM; metabolised at 20 min (α-chymotrypsin): 70%
C[C@@]1(C(=O)N[C@@H](CCCCN)C(N)=O)CCCC=CCCC[C@](C)(NC(=O)[C@H](CCCCN)NC(=O)[C@H](Cc2ccccc2)NC(=O)[C@H](Cc2ccccc2)NC(=O)[C@@H](N)CCCCN)C(=O)N[C@@H](Cc2ccccc2)C(=O)N[C@@H](CCCCN)C(=O)N[C@@H](Cc2ccccc2)C(=O)N1 [(KFF)3K[5–9]] (H-KFFK[S5]FKF[S5]K-NH2; staple 5-9) | 4 (≈ 5.48 µg/mL) | 8 (≈ 11 µg/mL) | 4 (≈ 5.48 µg/mL) | 8 to 16 | 16 (≈ 21.9 µg/mL) | 2 (≈ 2.74 µg/mL) | 8 (≈ 11 µg/mL) | 2 (≈ 2.74 µg/mL) | 8 (≈ 11 µg/mL) | 4 (≈ 5.48 µg/mL) | 16 (≈ 21.9 µg/mL) | 32 (≈ 43.8 µg/mL) | peptide remained undigested after incubation in chymotrypsin solution [14]: 90%
C[C@@]1(C(=O)N[C@@H](CCCCN)C(=O)N[C@@H](Cc2ccccc2)C(=O)N[C@@H](Cc2ccccc2)C(=O)N[C@@H](CCCCN)C(N)=O)CCCC=CCCC[C@](C)(NC(=O)[C@@H](N)CCCCN)C(=O)N[C@@H](Cc2ccccc2)C(=O)N[C@@H](CCCCN)C(=O)N[C@@H](Cc2ccccc2)C(=O)N1 [(KFF)3K[2–6]] (H-K[S5]FKF[S5]KFFK-NH2; staple 2-6) | 4 (≈ 5.48 µg/mL) | 4 (≈ 5.48 µg/mL) | 4 to 8 | 16 (≈ 21.9 µg/mL) | 8 (≈ 11 µg/mL) | 2 (≈ 2.74 µg/mL) | 4 (≈ 5.48 µg/mL) | 2 (≈ 2.74 µg/mL) | 4 (≈ 5.48 µg/mL) | 8 (≈ 11 µg/mL) | 16 to 32 | 16 to 32 | 
KETWWETWWTEWSQPKKKRKV [Pep-1, amphipathic cell-penetrating peptide quoted from the literature] |  |  |  |  |  |  |  |  |  |  |  |  | MIC [15]: 32 to 64 µM
polymyxin B |  | 0.5 to 1 |  |  | > 32 | 0.125 |  |  | 0.5 to 1 |  |  |  | MIC (E. coli 1841-06 [1]; MHB, 20 h, 37 °C, OD600, β-lactam resistant strain, tested up to 32 µM): 1 µM; MIC [3, 16]: 1 µM; MIC (S. aureus ATCC 29213 [4]; [16]): > 32 µM; MBC (E. coli 1841-06 [7]; [17]): 1 µM; MBC (E. coli K12 [8]; [17]): 0.125 µM; MBC [10, 17]: 1 µM; MBC (S. aureus ATCC 29213 [11]; [17]): > 32 µM; MBC [12, 17]: > 32 µM; antibacterial activity ([13]; Gram-positive strains, tested up to 32 µM): not active
